Test system: pancreatic HIT cells (β-cell clusters)
Format: cell-based, hamster
Protocol: For trypsinization and splitting, trypsin-EDTA solution was added to a culture flask and incubated for 30 s while triturating with a transfer pipette. Serum was added to stop the digestive action of trypsin. Supernatant was removed after centrifugation at 1000 rpm for 2 min. Culture medium was added, and cells plated into glass bottom petri dishes (35 mm diameter, Matek, Ashland, Mass.) for incubation and subsequent observation.
Cell clusters, approximating to spheroids, appeared approximately two weeks after splitting. Their size ranged from 70 μm to 300 μm in diameter, depending on the time in culture.
A glucose microsensor was positioned adjacent to the cluster and self-referenced perpendicularly to the contour of the expected glucose gradient. The glucose sensor was self-referenced at 0.2 Hz between 60 and 80 μm (Δr of 20 μm) from the cluster surface to avoid H2O2 boundary artifacts. Flux measurements were done in HEPES-buffered solution containing 118 mM NaCl, 5.4 mM KCl, 2.4 mM CaCl2, 1.2 mM MgSO4, 1.2 mM KH2PO4, and 5 mM NaHCO3. All measurements were made with 5 mM glucose in the medium. To ensure that the apparent glucose signal was due to the glucose gradient and not the oxygen gradient, oxygen was provided by a ˜10 μm pipette located 10 μm from the cell cluster and approximately 50 μm from the glucose sensor to reverse the biological oxygen gradient. […] In situ calibration of the sensor was performed immediately after the flux measurements. Data were only accepted if sensor drift was less than ±5% over the experimental period, which was typically 30 min. All data were reported as means ±SEM unless otherwise mentioned.
The glucose sensor was self-referenced at 0.2 Hz between 60 and 80 μm (Δr of 20 μm) from the cluster surface. The aliquot of FCCP was dropped on the meniscus of the medium to minimize disturbance of the existing glucose gradient. All measurements were performed with 5 mM glucose in the bath.
Glucose metabolism was further studied with rotenone, an inhibitor of NADH-dependent respiration in mitochondria. […]

Compound	glucose flux relative to the basal condition	initial increase in glucose flux [%]	decrease in the level of glucose consumption (10 μM rotenone, after 10 min, 5 mM glucose in bath, oxygen source present, four clusters) [%]
trifluoromethoxy carbonylcyanide phenylhydrazine [FCCP]	56±6 % of the basal condition	93±16	–
C=C(C)[C@H]1Cc2c(ccc3c2O[C@@H]2COc4cc(OC)c(OC)cc4[C@@H]2C3=O)O1 [Rotenone, rotenone]	–	–	74±5
